Patent publication US20230220047A1, “PEPTIDES FOR TREATMENT OF SEPSIS AND CANCER” (NORWEGIAN UNIVERSITY OF SCIENCE AND TECHNOLOGY (NTNU), priority 2020, published 2023)

Experiments:
primary human monocytes = assay: Confocal analysis of E. coli particle uptake by primary human monocytes; assay type: cell-based; settings: 3 μM, similar extent as P7-Pen
Method: Cells were pre-incubated with Pen or P7-Pen peptides, followed by addition of Alexa Fluor 488-labeled bioparticles for the times indicated (15, 30 or 45 min). Fluorescent bacteria particles were counted by spot-detection in Bitplane Imaris imaging software and used to calculate the number of particles per cell. […] Pre-incubation with 3 μM cytochalasin D (CytoD, and inhibitor of actin polymerization) inhibited uptake of E. coli to a similar extent as P7-Pen.
THP-1 cells, THP-1^cherry cells or human PBMC were seeded in 24-well glass-bottom plates (MatTek Corporation), 125,000 cells/well. The THP-1 cells were differentiated into macrophages with 60 ng/ml PMA for 72 h and thereafter rested for 48 h, whereas the PBMC were used the day after isolation. The P7-penatratin peptide or control peptide was added to the cells 30 min before stimulation at 15 μM concentration. If used, 3 μM cytochalasin D (CytoD) was added simultaneously. […] A spot detection mode in the Bitplan Imaris software was used to define individual phagosomes and cells were counted manually. […] Fluorescence voxel intensity of TRAM^cherry at the phagosome is also presented. Statistical significance was calculated in GraphPad Prism by One-way ANOVA Kruskal-Wallis multiple comparison test. […]

TLR4 [1] = assay: qPCR of TLR4-mediated cytokine expression in B6 immortalised murine macrophages; assay type: cell-based, mouse; settings: 10 μM, 1 h pre-treatment, LPS 100 ng/ml
Method: Cells were pre-treated with 10 μM peptides in cell culture media for 1 h, and stimulated with LPS (100 ng/ml) for increasing lengths of time.
Immortalized bone-derived-macrophages (iBMDM) from wild type, Tram−/− or TIr4−/− C57BL/6 mice were maintained at 37° C. and 5% CO2 in DMEM supplemented with 10% FCS.
(§1) Total RNA was isolated from the cells using Qiazol reagent #79306 from QIAGEN, and chloroform extraction followed by purification on RNeasy Mini columns with DNAse digestion (Qiagen). cDNA was prepared using the Maxima First Strand cDNA Synthesis Kit for quantitative real-time polymerase chain reaction (RT-qPCR) (Thermo Fisher Scientific) according to the manufacturer's protocol. qPCR was performed using the PerfeCTa qPCR FastMix (Quanta Biosciences) in replicates and cycled in a StepOnePlus™ Real-Time PCR cycler. The following TaqMan® Gene Expression Assays (Applied Biosystems®) were used: IFNβ (Hs01077958_s1), TNF (Hs00174128_m1), TBP (Hs00427620_m1), CXCL10 (Hs01124251_g1), IL-6 (Hs00174131_m1) and IL-1β (Hs01555410_m1), for human cells; Ifnβ (Mm00439552_s1), Tnf (Mm00443258_m1), Tbp (Mm01277042_m1) and II-1β (Mm00434228_m1), for mouse cells. No RT controls were negative. The level of TBP mRNA was used for normalisation and results presented as relative expression compared to the control untreated sample. Relative expression was calculated using Pfaffl's mathematical model (Pfaffl, Nucleic Acids Research 29(9): e45, 2001). Results are presented as the mean and SD expression fold change for biological replicates relative to non-stimulated cells. Statistical significance was evaluated in GraphPad Prizm 5.03. Data distribution was assumed to be normal but this was not formally tested. The difference between the two groups was determined by two-tailed t test.
We proceeded with cellular assays to address the effect of peptide pre-treatment on TLR4-mediated cytokine expression in B6 immortalised murine macrophages (FIG. 13). Tested peptides had no cytotoxic effect on B6 murine macrophages (FIG. 13A).

THP-1 cells = assay: LDH cytotoxicity assay in THP-1 cells; settings: CPP screen, 15 μM, 30 min pre-treatment, LPS 100 ng/ml
Method: For every assay, separate wells were seeded for the required controls (Spontaneous LDH Release Controls and Maximum LDH Release Control) with the same amount of cells as used for peptide treatments. All supernatants were analysed in triplicate with the average value of technical replicates taken into calculations.
THP-1 cells were pre-treated with increasing concentrations of P7-Arg11 and control peptide Arg11 for 1 h (FIG. 3).

SLAMF1-TRAM interaction = target: T1, SLAMF1-TRAM interaction (Homo sapiens, UniProt Q86XR7); assay: Co-precipitation of SLAMF1 and TRAM^Flag in the presence of ECFP-tagged peptides; assay type: binding; settings: N-terminal ECFP-tagged peptides, HEK-293T lysates, anti-Flag IP
T1 construct: expressed in transfected cells; host or cells: HEK-293T
Text: (A) Western blot analysis of SLAMF1 and TRAM^Flag co-precipitated in the presence of CFP-tagged peptides. TRAM^Flag was precipitated from cell lysates on agarose beads and distributed across 15 tubes. […] Unbound proteins/peptides were removed by a washing step, and pecipitates analysed by WB (anti-Flag IPs). Reduced SLAMF1 binding to TRAM indicates inhibition of the TRAM/SLAMF1 interaction by the peptide. (B) Sequences of the peptides that were expressed as ECFP-tagged proteins (N-terminal ECFP). Peptides 4 and 5 are not shown and were not pursued.
HEK293T cells expressing Flag-tagged proteins were lysed using 1×lysis buffer (150 mM NaCl, 50 mM TrisHCl (pH 8.0), 1 mM EDTA, 1% NP40), supplemented with EDTA-free Complete Mini protease Inhibitor Cocktail Tablets and PhosSTOP phosphatase inhibitor cocktail from Roche, 50 mM NaF and 2 mM […] (Sigma). IPs were carried out by rotation of cell lysates at 4° C. for 2 h with anti-flag (M2) agarose (Sigma). Beads were washed 5 times with lysis buffer and heated for 5 min with 1×NuPAGE® LDS Sample Buffer (Thermo Fisher Scientific) before analysis of precipitates by Western blotting. […]
Inhibition of the TRAM-SLAMF1 interaction using SLAMF1-derived peptides was tested. For the first line of experiments, SLAMF1-derived peptides were co-expressed as N-terminal ECFP-tagged proteins together with SLAMF1 and TRAM^FLAG constructs in HEK-293T cells.

[2] = test system: ANBL-6 multiple myeloma cells; assay: CellTiter-Glo cell viability assay, ANBL-6; assay type: cell-based; settings: 20 μM, 48 h
Method: Minor effects on the proliferation of the IH-1 and RPMI 8226 cell lines are seen. Cells were seeded at the level shown (left-hand bar of each set) then incubated in medium containing water, 10 μM penetratin or 10 μM P7-A4-Pen for 48 hr (except for INA-6 cells, which were incubated with 12.5 μM penetratin or 12.5 μM P7-A4-Pen). The number of viable cells was detected based on quantitation of ATP by luminescent signal in correlation to a standard curve prepared for each cell line. Results are based on 3-5 biological replicates for each condition, error bars show standard deviation of mean.
Cells were seeded and then incubated in growth medium alone or supplemented with water, DMSO, 15 μM penetratin or 15 μM investigational peptide. The growth medium only and H2O—, DMSO- and penetratin-supplemented cultures constituted controls.
The solid horizontal lines show the amount of cells originally seeded. In (A) ANBL-6 cells were seeded at a level of 10,000 cells/well, then incubated in medium supplemented with water, the control peptide C3A-Pen, P7-Pen, P7-A4-Pen, P7-N4-Pen or P7-K2-Pen for 48 hours. The peptides were included at concentrations of 5, 10, 12.5, 15, 20 or 30 μM. Cells were counted at 48 hours. In (B), ANBL-6 cells were seeded at a level of 5000 cells/well, then incubated in medium supplemented with water, P6-Pen, P-P6-Pen, P7-D4-Pen or P7-A4-Pen for 48 hours. Peptides were included at concentrations of 5, 10 or 20 μM. Cells were counted at 48 hours. […] Results are based on 3 biological replicates, error bars show standard deviation of mean.
Multiple myeloma cells JJN-3 (DSMZ (Germany) no. ACC 541), ANBL-6 (Cellosaurus accession number CVCL_5425, obtained from Dr Diane Jelinek, Mayo Clinic, Rochester, Minn.), INA-6 (Cellosaurus accession number CVCL_5209, obtained from Dr M. Gramatzki, University of Erlangen-Nurnberg, Erlangen, Germany), RPMI-8226 (ATCC CCL-155), and IH-1 (Cellosaurus accession number CVCL_WZ44, established from the pleural effusion of a myeloma patient by Myeloma research group, IKOM, NTNU, Trondheim, Norway) were grown in RPMI-1640 (Sigma-Aldrich Norway, Oslo, Norway) supplemented with 100 nM penicillin/streptomycin and 10% FCS, and for ANBL-6, IH-1 and INA-6 cells 2 ng/ml recombinant IL-6 (Gibco, Thermo Fisher Scientific, Waltham, Mass., USA). Murine multiple myeloma Vk*MYC cells were obtained from M.D. Leif Bergsagel (Mayo Clinic, Richester, Minn., USA) and cultured in RPMI-1640 supplemented with 2% human serum (B^+, The blood bank, St Olav's Hospital, Trondheim, Norway), 100 nM penicillin/streptomycin, L-Glutamine (2 mM) and recombinant IL-6 (1 ng/ml). HEK293T (ATCC CRL-3216) were cultured in DMEM with 10% FCS. THP-1 TRAM knockout (KO) and TLR4 KO cell lines, and matching lentivirally transduced control cell lines, were differentiated in the same way as wild type (WT) THP-1. TRAM KO THP-1 cell line is described in Yurchenko et al. (supra).
To evaluate the potential impact of the P7 peptide on proliferation of tumour cells of lymphoid origin, we performed a CellTiter-Glo Luminescent Cell Viability Assay to address proliferation of several multiple myeloma (MM) cell lines. For the assay, cells were incubated for 48 h in respective media containing either solvent (water), 10 μM control peptide (Pen) or the SLAMF1-derived peptide P7-A4-Pen for 48 h (FIG. 32) (with the exception of the INA-6 cells which were incubated with 12.5 μM control peptide or P7-A4-Pen). […] This effect could be mediated by P7-A4-Pen-induced inhibition of signalling pathways that are crucial for driving proliferation and/or survival of MM tumour cells.

TLR4 [3] = assay: qPCR of LPS-mediated cytokine mRNA expression in THP-1 macrophages; assay type: cell-based, human; settings: 15 μM
Method: SW480 (ATCC CCL-228) and Jurkat (ATCC Clone E6-1; TIB-152) cells were cultured in RPMI 1640 (Sigma-Aldrich, Schnelldorf, Germany) supplemented with 10% heat-inactivated FCS, penicillin/streptomycin (Life Technologies) and 20 mM L-Glutamine. THP-1 cells (ATCC TIB-202) were cultured in RPMI-1640 (high-glucose, ATCC) supplemented with 10% heat inactivated foetal calf serum (FCS), 100 nM penicillin/streptomycin and 5 μM β-mercaptoethanol (Sigma). THP-1 cells were differentiated with 60 ng/ml phorbol 12-myristate 13-acetate (PMA, Sigma) for 72 h, followed by 24 or 48 h in medium without PMA.
as §1

STAT1 = assay: Western blot of STAT1 phosphorylation in LPS-stimulated THP-1 cells; assay type: cell-based, human; settings: 15 μM, compared to control peptide
Method: Protein pellets were dissolved by heating protein pellets for 10 min at 95° C. in buffer containing 4 M urea, 1 SDS (Sigma) and NuPAGE® LDS Sample Buffer (4×) (Thermo Fisher Scientific). Otherwise, lysates were made using 1× RIPA lysis buffer (150 mM NaCl, 50 mM TrisHCl (pH 7.5), 1% Triton X100, 5 mM EDTA, protease inhibitors, phosphatase inhibitors). For Western blot analysis we used pre-cast protein gels NuPAGE™ Novex™ and iBlot Transfer Stacks iBlot Gel Transfer Device (Thermo Fisher Scientific). Proteins were transferred to the membrane by dry-blotting using iBlot® 2 NC Regular/Mini Stacks (Life Technologies) in the iBlot 2 Dry Blotting System (Life Technologies). After secondary antibody incubation, membranes were washed and incubated with HRP substrate solution (SuperSignal™ West Femto Maximum Sensitivity Substrate (Thermo Fisher Scientific)). Images were taken using Odyssey® Fc (LI-CORE). Quantification graphs were generated by the analysis of signal intensities for protein bands (protein of interest and endogenous loading control—β-tubulin from the same membrane) using Odyssey software (LI-CORE). Data were normalised to the expression levels of β-tubulin and presented as a relative fold change to the control sample.

T1 sequence (Q86XR7 whole entry): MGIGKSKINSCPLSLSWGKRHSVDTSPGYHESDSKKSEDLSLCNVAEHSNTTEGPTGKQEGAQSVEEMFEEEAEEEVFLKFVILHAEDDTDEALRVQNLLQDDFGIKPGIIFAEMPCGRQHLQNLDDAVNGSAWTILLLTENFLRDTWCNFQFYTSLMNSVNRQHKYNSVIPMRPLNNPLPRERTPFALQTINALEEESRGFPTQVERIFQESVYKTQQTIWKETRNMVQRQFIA

C=C1[C@@H](C)[C@H]2[C@H](Cc3ccccc3)NC(=O)[C@]23[C@H](OC(C)=O)/C=C/[C@@](C)(O)C(=O)[C@@H](C)C/C=C/[C@H]3[C@@H]1O [cytochalasin D, reference compound]
uptake of E. coli (primary human monocytes): inhibited

Ac-ITVYASVTLTGKLALKLALKALKAALKLA-NH2 [Peptide P7-KLA]
TLR4-mediated Ifnβ, Tnf and Il-1β mRNA expression (TLR4 [1]): strongly inhibited | reduction of LPS-mediated toxicity (LDH assay) (THP-1 cells): most effective

P6: SEQ ID NO: 2; amino acid sequence of SLAMF1 positions 324-333 (ITVYASVTLP; listed as Homo sapiens) [Peptide P6]
inhibitory effect on SLAMF1-TRAM co-precipitation (SLAMF1-TRAM interaction): highest efficacy | anti-proliferative activity at the highest tested concentration [2]: moderate anti-proliferative

TNSITVYASVTLTESGRRRRRRRRRRR (P3-Arg11) [Peptide P3-Arg11]
LPS-mediated cytokine mRNA expression (TLR4 [3]): not effective | phosphorylation of STAT1 upon LPS stimulation (STAT1): no effect
